Experimental data taken from paper PMC12604929, “Tumor-specific cytotoxicity of pyrazole-based chalcone derivatives in human oral squamous cell carcinoma cell lines” (Turkish Journal of Biology, 2025).
Entries after “also recorded” stand apart in the source; their conditions may differ. Numbered stars: 1 amine (or outer) side, 2 acyl side, 3 side chain; on linkers, the order of the positions; unused ones are H or OH. Bridge positions count the residues as written; N and C are the ends. Square brackets hold non-standard residues; d marks the D form. Peptide text beside a SMILES is read from it. I, II: the chains in the order shown. Actinocin(9to1) = Cc1c2oc3c(C)ccc(C(=O)[*:1])c3nc-2c(C(=O)[*:2])c(N)c1=O; NMeV = CN[C@H](C(=O)O)C(C)C; Sar = CNCC(=O)O

How the values were obtained:
[1] = system: HSC-2 cells; test: Cell-cycle analysis (propidium iodide, cell sorting); type: cell-based, human; conditions: HSC-2, 24 h; for subG1 cell population: control 1.9 %
Method: Cell-cycle analysis was performed following the process described in the literature ([Kantoh et al., 2010]; [Nagai et al., 2018]; [Shi et al., 2018]), details of which are presented in a supplementary file. Briefly, cells (approximately 10^6 in number) were fixed with paraformaldehyde in PBS(−) and treated with RNase A. After staining with propidium iodide in the presence of 0.01% Nonidet-40 to prevent cell aggregation, the cells were filtered through Falcon cell strainers and then subjected to cell sorting, analyzed with Cell Sorter Software (version 2.1.2) (SONY Imaging Products and Solution Inc., Kanagawa, Japan).
HSC-2 cells were incubated for 24 h with actinomycin D (Act.D) (positive control of apoptosis induction) or MS4, 7, or 8, or without treatment (control), and subjected to cell cycle analysis. […] D (1 μM) (p < 0.05) from 1.9 % to 12.5%. […] The cell cycle analysis was performed only with HSC-2 cells; therefore, experiments with other OSCC cell lines should be conducted to support the generalization of our findings.
Treated and untreated cells (approximately 10^6 cells) were harvested, fixed with 1% paraformaldehyde in PBS without calcium and magnesium ions [PBS(−)]. Fixed cells were then washed twice with PBS(−) and treated for 30 min with 400 μl of 0.2 mg/ml RNase A (preheated for 10 min at 100 °C to inactivate DNase) to degrade RNA. Cells were then washed twice with PBS(−) and stained for 15 min with 0.01% propidium iodide (PI) in the presence of 0.01% NP-40 in PBS(−) to prevent cell aggregation. After filtering through Falcon® cell strainers ([…]) (Corning, NY, USA) to remove aggregated cells, PI-stained cells were subjected to cell sorting (SH800 Series; SONY Imaging Products and Solutions Inc., Kanagawa, Japan). Cell-cycle analysis was performed with Cell Sorter Software version 2.1.2. (SONY Imaging Products and Solution Inc.).

[2] = MTT cytotoxicity assay, HPC; type: cell-based, human; conditions: female, human, human pulp cells (HPC), normal oral cells, average of three determinations
Method: (§2) The viable cell number was determined in triplicate by the MTT method, following the approach adopted in previous studies ([Nagai et al., 2018]; [Shi et al., 2018] ). Briefly, the cells were incubated for 2 h with 0.2 mg/mL of MTT, and the formed formazan was dissolved with 0.1 mL of DMSO to determine the relative viable cell number at 560 nm.
(§3) Cells were inoculated at 2×10^3 cells/0.1 ml in a 96-microwell plate. […] Cells were incubated further for 48 h and the relative viable cell number was then determined by the MTT method and expressed as the absorbance of the cell lysate at 560 nm, using a microplate reader (Infinite F50R; TECAN, Männedorf, Switzerland) [49, 50]. Control cells were treated with the same amounts of DMSO and the cell damage induced by DMSO was subtracted from that induced by test agents. The concentration of compound that reduced the viable cell number by 50% (CC50) was determined from the dose–response curve and the mean value of CC50 for each cell type was calculated from triplicate assays.
(§4) All of these cells were cultured at 37°C in DMEM supplemented with 10% heat-inactivated fetal bovine serum, 100 units/ml, penicillin G and 100 µg/ml streptomycin sulfate under a humidified 5% CO2 atmosphere.

[3] = system: human OSCC cell lines (Ca9-22, HSC-2, HSC-3, HSC-4); test: MTT cytotoxicity, four OSCC cell lines together (mean, TS, PSE, type of growth inhibition); type: cell-based; conditions: for CC50: Homo sapiens, mean of Ca9-22, HSC-2, HSC-3, HSC-4, read-out: CC50 OSCC mean (B); for type of growth inhibition on the OSCC cell lines: from dose-response curves, Figure 4, cytostatic = without complete cytotoxicity, cytotoxic = complete cell death; for TS (D/B) tumor-selectivity index: mean CC50 normal cells / mean CC50 OSCC cell lines
Method: TS was calculated using the following equation: TS=mean CC50 against three normal oral cell types/mean CC50 against four OSCC cell lines (HGF, HPLF, HPC vs. Ca9-22, HSC-2, HSC-3, HSC-4). Since both Ca9-22 and HGF cells were derived from the gingival tissue, the relative sensitivity of these cells was also compared (as: CC50 against HGF/ CC50 against Ca9-22).
PSE was calculated by the following equation: PSE=mean CC50 against three normal oral cell types/(CC50 against four OSCC cell lines)2 × 100 (HGF, HPLF, HPC vs. Ca9-22, HSC-2, HSC-3, HSC-4); and as CC50 against HGF/(CC50 against Ca9-22)2 × 100 using the pair of cell types from the same tissue (gingiva) (see Table 1).
(§1) Estimation of CC50 values. […] The mean pCC50 values for normal cells and tumor cell lines were defined as N and T, respectively.

[4] = system: HSC-4 cells (OSCC, tongue); test: MTT cytotoxicity assay, HSC-4; type: cell-based, human; conditions: Homo sapiens, HSC-4, 48 h, average of three determinations
Method: as §2, §3
(§5) Human oral squamous cell carcinoma (OSCC) cell lines [Ca9-22 (derived from gingival tissue); and HSC-2, HSC-3, HSC-4 (derived from tongue)] were purchased from Riken Cell Bank (Tsukuba, Japan). All of these cells were cultured at 37°C in DMEM supplemented with 10% heat-inactivated fetal bovine serum, 100 units/ml, penicillin G and 100 µg/ml streptomycin sulfate under a humidified 5% CO2 atmosphere. Cell morphology was checked periodically under a light microscope (EVOS FL; Thermo Fisher Scientific, Waltham, MA, USA).

[5] = MTT cytotoxicity assay, HPLF; type: cell-based, human; conditions: female, human, normal oral cells, average of three determinations
Method: as §2, §3, §4

[6] = system: HSC-3 cells (OSCC, tongue); test: MTT cytotoxicity assay, HSC-3; type: cell-based, human; conditions: for CC50: Homo sapiens, HSC-3, OSCC, 48 h, MTT, average of three determinations; for increase of cytotoxicity against HSC-3 compared to MS4: relative to unsubstituted phenyl derivative MS4
Method: as §2, §3, §5

[7] = system: Ca9-22 cells (OSCC, gingival tissue); test: MTT cytotoxicity assay, Ca9-22; type: cell-based, human; conditions: for TS (C/A) tumor-selectivity index: CC50 HGF / CC50 Ca9-22 (both gingival); for CC50: Homo sapiens, Ca9-22, OSCC, 48 h, MTT, average of three determinations; for PSE (C/A^2)x100 potency-selectivity expression: HGF vs Ca9-22 (both gingival)
Method: as §2, §3, §5

[8] = MTT cytotoxicity, three normal oral cell types together (mean); type: cell-based, human; conditions: female, human; mean of HGF, HPLF, HPC; read-out: CC50 normal oral cells mean (D)
Excerpt: as §1

[9] = MTT cytotoxicity assay, HGF; type: cell-based, human; conditions: human, human gingival fibroblasts (HGF), normal oral cells, average of three determinations
Method: as §2, §3, §5

[10] = system: HSC-2 cells (OSCC, tongue); test: MTT cytotoxicity assay, HSC-2; conditions: Homo sapiens, HSC-2, 48 h, read-out: CC50 HSC-2
Method: as §2, §3, §5

Compound | CC50 at 48 h [2] | CC50 [3] | type of growth inhibition on the OSCC cell lines [3] | TS (D/B) tumor-selectivity index [3] | CC50 [4] | CC50 at 48 h [5] | CC50 [6] | TS (C/A) tumor-selectivity index [7] | CC50 [7] | CC50 at 48 h [8] | CC50 at 48 h [9] | CC50 [10] | PSE (C/A^2)x100 potency-selectivity expression [7] | also measured
Cc1c2oc3c(C)ccc(C(=O)N[C@@H]4C(=O)N[C@H](C(C)C)C(=O)N5CCC[C@H]5C(=O)N(C)CC(=O)N(C)[C@@H](C(C)C)C(=O)O[C@@H]4C)c3nc-2c(C(=O)N[C@@H]2C(=O)N[C@H](C(C)C)C(=O)N3CCC[C@H]3C(=O)N(C)CC(=O)N(C)[C@@H](C(C)C)C(=O)O[C@@H]2C)c(N)c1=O [Act.D, actinomycin D, reference compound] (I: T[dV]P[Sar][NMeV] / II: T[dV]P[Sar][NMeV]; ester I:1-I:C, II:1-II:C; linker I:N-II:N via Actinocin(9to1)) | – | – | – | – | – | – | – | – | – | – | – | – | – | subG1 cell population ([1]; 1 μM): 12.5%
COc1ccc(C(=O)/C=C/c2cn(-c3ccc(S(N)(=O)=O)cc3)nc2-c2ccccc2)cc1OC [MS9, (E)-4-(4-(3-(3,4-Dimethoxyphenyl)-3-oxoprop-1-en-1-yl)-3-phenyl-1H-pyrazol-1-yl)benzenesulfonamide] | > 400 µM | 44.6 µM | mixed effects | >9.0 | 83 µM | > 400 µM | 35 µM | >40.1 | 10 µM | > 400 µM | > 400 µM | 50.3 µM | – | –
NS(=O)(=O)c1ccc(-n2cc(/C=C/C(=O)c3cccs3)c(-c3ccccc3)n2)cc1 [MS10, (E)-4-(4-(3-Oxo-3-(thiophen-2-yl)prop-1-en-1-yl)-3-phenyl-1H-pyrazol-1-yl)benzenesulfonamide] | 6.7 µM | 1.86 µM | mixed effects | 25.9 | 1.78 µM | 121 µM | 4.63 µM | 26.4 | 0.63 µM | 48 µM | 16.6 µM | 0.38 µM | 4191 | –
C/C(=N\Nc1ccc(S(N)(=O)=O)cc1)c1ccccc1 [MS1, (E)-4-(2-(1-phenylethylidene)hydrazinyl)benzenesulfonamide] | 51 µM | 25.9 µM | cytostatic effects | 4.5 | 15.7 µM | 246 µM | 53.7 µM | 2.5 | 20 µM | 116 µM | 50.7 µM | 14.3 µM | – | –
COc1cccc2c1C(=O)c1c(O)c3c(c(O)c1C2=O)C[C@@](O)(C(=O)CO)C[C@@H]3O[C@H]1C[C@H](N)[C@H](O)[C@H](C)O1 [DXR, doxorubicin, reference compound] | 9.2 µM | 0.18 µM | cytotoxic effects | >54.9 | 0.09 µM | > 10 µM | 0.29 µM | >45.5 | 0.22 µM | > 9.7 µM | > 10 µM | 0.12 µM | – | –
COc1cc(C(=O)/C=C/c2cn(-c3ccc(S(N)(=O)=O)cc3)nc2-c2ccccc2)cc(OC)c1OC [MS8, (E)-4-(4-(3-Oxo-3-(3,4,5-trimethoxyphenyl)prop-1-en-1-yl)-3-phenyl-1H-pyrazol-1-yl)benzenesulfonamide] | > 400 µM | 3.3 µM | cytotoxic effects; also recorded: cytotoxic growth inhibition | >113.5 | 3.5 µM | 340 µM | 4 µM | >169.0 | 2.4 µM | > 380 µM | > 400 µM | 3.6 µM | > 7141 | effect on cell cycle distribution [1]: increased the cell population in the S and G2/M phases; subG1 cell population ([1]; 7.2 μM): 1.3%; share of S-phase cells ([1]; control 15.6%, concentration not given): 21.2%; share of G2+M phase cells ([1]; control 20.5%, concentration not given): 35.4%; effect on cell cycle distribution ([1]; listed as 8): induced G2+M arrest; PSE (D/B^2)x100 potency-selectivity expression ([3]; three normal cell types vs four OSCC cell lines): > 3389; increase of cytotoxicity against HSC-3 compared to MS4 [6]: 1.5–2 times
O=c1[nH]cc(F)c(=O)[nH]1 [Compound 5-FU, 5-fluorouracil, reference compound] | – | – | cytostatic effects | > 28.6 | – | – | – | > 30.3 | – | – | – | – | – | –
CN(C)C=NS(=O)(=O)c1ccc(-n2cc(C=O)c(-c3ccccc3)n2)cc1 [MS2] | 214 µM | 53.3 µM | cytotoxic effects | 4.5 | 63 µM | 262 µM | 74.3 µM | 7.1 | 34.3 µM | 241 µM | 245 µM | 41.3 µM | – | –
NS(=O)(=O)c1ccc(-n2cc(C=O)c(-c3ccccc3)n2)cc1 [MS3, 4-(4-formyl-3-phenyl-1H-pyrazol-1-yl) benzenesulfonamide] | 221 µM | 48.6 µM | cytotoxic effects | 4.7 | 46.3 µM | 217 µM | 51.7 µM | 7.8 | 32.3 µM | 230 µM | 253 µM | 64 µM | – | –
Cc1ccc(C(=O)/C=C/c2cn(-c3ccc(S(N)(=O)=O)cc3)nc2-c2ccccc2)cc1 [MS5, (E)-4-(4-(3-Oxo-3-(p-tolyl)prop-1-en-1-yl)-3-phenyl-1H-pyrazol-1-yl)benzenesulfonamide] | 30.3 µM | 10.1 µM | cytostatic effects | >19.1 | 3.1 µM | > 400 µM | 34.7 µM | 88.8 | 1.6 µM | > 192 µM | 145 µM | 0.9 µM | 5426 | –
COc1ccc(C(=O)/C=C/c2cn(-c3ccc(S(N)(=O)=O)cc3)nc2-c2ccccc2)cc1 [MS6, (E)-4-(4-(3-(4-Methoxyphenyl)-3-oxoprop-1-en-1-yl)-3-phenyl-1H-pyrazol-1-yl)benzenesulfonamide] | 51.9 µM | 3.5 µM | cytotoxic effects | 33.9 | 3.3 µM | 99.7 µM | 3.6 µM | 66.5 | 3.1 µM | 120 µM | 209 µM | 4.1 µM | 2115 | increase of cytotoxicity against HSC-3 compared to MS4 [6]: 1.5–2 times
